In ChEMBL document CHEMBL4396898, “Design and synthesis of 3-aminophthalazine derivatives and structural analogues as PDE5 inhibitors: anti-allodynic effect against neuropathic pain in a mouse model” (Eur J Med Chem, 2019):
Converted amounts (≈) assume the structure as drawn.

Tests used:
physchem [1] = settings: saline
physchem [2] = settings: methanol:water:HCl, pH 1

SMILES	solubility at 24 h (physchem [1]) [µg/mL]	remaining at 96 h (physchem [2]) [%]
Clc1cccc(Nc2nnc(-c3ccccc3)c3ccccc23)c1	63 (≈ 190 µM)	
COc1ccc(CNc2nn(C)c3ccc(C(F)(F)F)cc23)cc1		100
COc1ccc(CNc2nn(-c3cccnc3)c3ccc(C(F)(F)F)cc23)cc1	15 (≈ 37.7 µM)	100
